Measured values from patent US20180028493A1, “INHIBITORS OF INDUCED MMP-1 PRODUCTION” (THE TRUSTEES OF COLUMBIA UNIVERSITY IN THE CITY OF NEW YORK, priority 2015, published 2018).
Values joined by “and” are separate entries in the source; they are usually repeats but may differ in a detail not shown here. Equal values may be shown once.

Experiments:
MMP-1 [1] = test system: MMP-1
From the text: FIG. 6. The expression of MMP-1 protein in BAL from smoke rabbits. […] SM-smoke without the duloxetine, SMD-smoke with duloxetine.
(§1) Rabbits were stratified into one of four groups (Unexposed, treated with vehicle, Smoke exposed, treated with vehicle, Unexposed, treated with Duloxetine and smoke exposed treated with Duloxetine. Animals are maintained on room air or smoke exposed for 16 weeks and then sacrificed. Lung lavage is taken, lungs are fixed and sectioned and protein homogenate from lungs frozen.

MMP-1 [2] = experiment: MMP-1 expression in SAECs treated with CSE; format: cell-based
Protocol: FIG. 5. […] Data is presented as mean+standard error.
FIG. 8. […] SAEC treatment with 5% CSE, 10 nM Fluoxitine, 10 uM Fluoxitine, and combinations of 5% CSE and Fluoxitine. […] Data is presented as mean+standard error.
In the first experiment, SAE cells were treated with 5% CSE, 10 nM Fluoxitine, 10 uM Fluoxitine, and combinations of 5% CSE and Fluoxitine (FIG. 8). […] Data is presented as mean+standard error.

emphysema = test system: emphysema
Protocol: FIG. 7A. […] Duloxetine was administered 3 mg/day given once a day.
FIG. 7B. Morphometric analysis of rabbit study groups. […] NS-non-smoke without the duloxetine, NS-D-non-smoke with duloxetine, SM-smoke without the duloxetine, SM-D-smoke with duloxetine.
as §1

PRAS40, BAD and GSK-3b = experiment: Protein array analysis of cells treated with CSE; format: cell-based; conditions: CSE with Fluoxetine pretreatment vs CSE
Protocol: FIG. 10. Protein Array Analysis of Cells Treated with CSE compared to Cells Treated with CSE combined with Fluoxetine. […] The lines representing these three transcription factors, along with ERK 1/2, are labeled. Additionally, the lines compressed at the bottom of the figure represent the following transcription factors that were also tested: PC, NC, Stat1, Stat2, Akt (Thr308), Akt (Ser473), AMPKa, S6 Ribosomal Protein, mTOR, HSP27, p70 S6 Kinase, p53, p38, SAPK/JNK, PARP and Caspase-3.

TLR-4 receptor = experiment: TLR4 expression in CSE treated SAE cells; format: cell-based; conditions: SAEC, 5% CSE, 10 uM
[3] = Fluoxetine quantification in lung by chromatography after oral gavage or inhalation; format: in vivo; conditions: mice; for Concentration in lung sample: peak at retention time 17.08, replicates and average
From the text: FIG. 13A. […] Mice were sacrificed, lungs lyophilized and protein homogenate prepared for chromatographic analysis.
FIG. 14A. […] Mice were sacrificed, lungs lyophilized and protein homogenate prepared for chromatographic analysis.
Mice were sacrificed, lungs lyophilized and protein homogenate prepared for chromatographic analysis.

IRAK = experiment: Western blot of IRAK phosphorylation in CSE treated SAE cells; format: cell-based

SMILES	MMP-1 expression by ELISA of lung homogenate (MMP-1 [1]; rabbit cigarette smoke model, 20 weeks of smoke, compound in the last four weeks)	Expression of MMP-1 protein in BAL (MMP-1 [1]; smoke exposed rabbits)	MMP-1 expression (MMP-1 [2]; SAEC, 5% CSE, 10 uM Duloxetine, p<0.05)	MMP-1 expression (MMP-1 [2]; cell culture system, 10 nM)	Mean linear intercept (morphometric analysis) (emphysema; SM vs NS, NS-D, SM-D groups, p=0.0495)	Development of emphysema (H&E of lungs) (emphysema; smoke exposed rabbits, 3 mg/day once a day)	BAD (protein array) (PRAS40, BAD and GSK-3b)	GSK-3b (protein array) (PRAS40, BAD and GSK-3b)	PRAS40 (protein array) (PRAS40, BAD and GSK-3b)	TLR-4 receptor expression (TLR-4 receptor)	Concentration in lung sample ([3]; inhalation 10 mg/kg)	Concentration in lung sample ([3]; inhalation 10 mg/kg, mean) [µM]	Levels of Fluoxetine within the lung, inhalation vs oral ([3]; 10 mg/kg)	Detection of Fluoxetine in the lung ([3]; 10 mg/kg oral gavage and 10 mg/kg inhaled)	Concentration in lung sample ([3]; oral gavage 10 mg/kg, 10 mg/kg)	Concentration in lung sample ([3]; oral gavage 10 mg/kg, 10 mg/kg, mean) [µM]	MMP-1 induction by CSE (MMP-1 [2]; SAEC, 5% CSE, 10 nM and 10 uM Fluoxetine, p<0.05)	Phosphorylation of IRAK (Western blot) (IRAK)
CNCC[C@H](Oc1cccc2ccccc12)c1cccs1 [Duloxetine, (+)-(S)—N-Methyl-3-(naphthalen-1-yloxy)-3-(thiophen-2-yl) propan-1-amine]	block the MMP-1 expression	down regulated the expression of MMP-1 in BAL	decreased MMP-1 expression	block the MMP-1 expression	SM group had statistically significant increased mean linear intercept	development of emphysema was blocked												
CNCCC(Oc1ccc(C(F)(F)F)cc1)c1ccccc1 (stereo not drawn) [Fluoxetine]							return to baseline	return to baseline	return to baseline	down regulation of TLR-4 receptor expression	25.81 µM and 26.2 µM and 26.45 µM	26.16	Inhalation resulted in higher levels	detection of Fluoxetine in the lung of mice	3.712 µM and 3.673 µM and 3.98 µM	3.788	MMP-1 induction was attenuated	suppressed
